# Entries after “also recorded” stand apart in the source; their conditions may differ.
# Tests used:
# [1] = tested on: β2-microglobulin transcript; assay: β2-microglobulin transcript in residual colonies (RT-PCR control); type: cell-based, human; details: antisense-treated colonies
# Procedure: To provide unambiguous evidence of the elimination of Philadelphia chromosome blast cells, residual cells from Example 3 were evaluated for the expression of bcr-abl transcripts, since the levels of this transcript should reflect the number of surviving leukemia cells. For this purpose, total RNA was isolated from a pool of colonies from Example 3, and the levels of bcr-abl transcripts were evaluated. Levels of β2 -microglobulin transcript were also determined as a control. The β2 -microglobulin gene is expressed independent of cell cycle.
# Accordingly, bcr-abl and β2 -microglobulin transcripts were reverse-transcribed and amplified in the presence of specific primers and Taq polymerase as described by Rappollee, Science 241, 708-712 (1988). The amplification products were separated on a 2% agarose gel and transferred to a nitrocellulose filter, which was hybridized with a synthetic 40-nucleotide c-abl fragment and a 40-nucleotide β2 -microglobulin fragment and labeled with [γ-^32 P]-ATP and polynucleotide kinase. The c-abl probe recognizes the amplified 257-nucleotide sequence of FIG. 1, which contains the L-6 type bcr-abl junction. The β2 -microglobulin probe recognizes the 195-nucleotide sequence contained within 5' and 3' β2 -microglobulin primers (Id.; Suggs et al., Proc. Natl. Acad. Sci. U.S.A. 78, 6613 (1981)).
# [2] = tested on: normal hematopoietic progenitor cells (normal bone marrow MNC); assay: CFU-GM colony formation of normal hematopoietic progenitor cells; type: cell-based, human; details: Table 3; 40 μg/ml at 0 h, 20 μg/ml 18 h later; 12 days; mean ± SD; control 263 ± 10
# Text: (§1) Normal bone marrow mononuclear cells (MNC) were obtained by aspiration from consenting volunteers and enriched for hematopoietic progenitors as previously reported by numerous investigators (Zamecnick et al., Proc. Natl. Acad. Sci. U.S.A. 83, 4143-4147 (1986); Caracciolo et al., J. Clin. Invest. 85, 55-61 (1990)). In brief, marrow cells were subjected to Ficoll-Hypaque density gradient sedimentation and then depleted of adherent monocyte-macrophage and T-lymphocytes by adherence to plastic Petri dishes and rosetting with neuraminidase-treated sheep red blood cells, respectively. Philadelphia chromosome-positive blast cells were isolated by Ficoll-Hypaque density gradient sedimentation from a CML patient in blast crisis (L-6 type junction). […] The residual non-blast cells had the morphological appearance of small lymphocytes. 25,000 MNC and 25,000 CML blast cells were combined and incubated with bcr-abl breakpoint-Specific antisense oligomer (SEQ ID NO:3) (40 μg/ml at h 0; 20 μg/ml 18 hours later) or with a 4 nucleotide mismatch bcr-abl antisense oligomer (SEQ ID NO:2) (40 μg/ml at 0 h; 20 μg/ml 18 hours later) or left untreated. […] At the end of the incubation period colonies were counted. […]
# [3] = tested on: 1:1 mix of normal MNC and CML blast crisis cells; assay: Morphology (Giemsa staining) of cells from residual colonies; type: cell-based, human
# Text: as §1
# [4] = tested on: 1:1 mixtures of normal marrow progenitors and CML blast crisis cells; assay: CFU-GM + CFU-L colony formation of 1:1 mixtures of normal marrow progenitors and CML blast crisis cells; type: cell-based, human; details: Table 3; 1:1 mixture; 40 μg/ml at 0 h, 20 μg/ml 18 h later; 12 days; mean ± SD; control 978 ± 24
# Text: as §1
# BV173 cells = assay: Macroscopic examination / disease state of leukemic SCID mice; type: in vivo, SCID mice (human leukemic cells)
# Procedure: Injection of the mice with BV173 cells induces a disease closely resembling that in human leukemia patients.
# (§2) To determine whether synthetic phosphorothioate oligodeoxynucleotides targeted against the bcr-abl junction of […] cells would modify the disease process in SCID mice. SCID mice were injected with 10^6 BV173 cells. The mice then received 1 mg of sense (ATCAATAAGG AAGCCCTTCAGCG, SEQ ID NO:34) or antisense ([…] ATTGAT, SEQ ID NO:29) b2/a2 bcr-abl phosphorothioate oligodeoxynucleotides (pyrogen leven <1 Eu/mg; 0.2 ml in Iscove modified Dulbecco medium in 5-10 seconds) intravenously for each of 9 consecutive days, beginning either 7 or 21 days after introducing 10^6 BV173 cells. Control mice received the diluent (iscove's modified Dulbecco medium) only. These time points approximate distinct disease stages in humans.
# [5] = tested on: bcr-abl (b2/a2) transcripts; assay: RT-PCR of bcr-abl transcripts in tissues of leukemic SCID mice; type: in vivo, SCID mice (human leukemic cells)
# Procedure: According to a third assay, the extent of leukemic disease was assessed by chain RT-PCR to monitor the expression of b2/a2 transcripts (assay sensitivity=[…]) in total RNA isolated from bone marrow cells, splenocytes, peripheral blood leukocytes, liver, lung and brain tissues. Depending on the number of BV173 cells injected, various numbers of leukemic cells were detected by clonogenic assay and RT-PCR in murine tissues, 3 and 6 weeks after injection. A few days before the expected death of leukemic SCID mice, approximately 80, 65, and 10% cALLA-positive cells were detected in bone marrow cells, splenocytes and peripheral blood leukocytes, respectively.
# as §2
# At 7 (+7) and 21 (+21) days after injecting SCID mice with 10^6 BV173 cells, single cell suspensions were prepared from various tissues. After lysing red cells with 0.83% NH4 Cl buffered with 0.17 mM Tris-HCl, pH 7.4, total RNA was extracted as described (Chomczynski and Sacchi, Anal. Biochem. 162, 156 (1987)) and the suspension was divided into two equal aliquots. Bcr-abl and β-actin transcripts were reverse-transcribed and amplified with specific primers and Taq polymerase as described by Szczylik et al., Science 253, 562 (1991). Amplification products were separated on a 2% agarose gel, transferred to a nitrocellulose filter and hybridized with a synthetic 40-base c-abl fragment or 20-base β-actinfragment end-labeled with [γ^32 -P]-ATP and polynucleotide kinase. The c-abl probe recognizes an amplified 257-bp sequence containing the bcr-abl junction: the β-actin probe recognizes a 209-bp fragment, contained within the 5' and 3' β-actin primers (Tokunaga et al., Nucleic Acids Res. 14, 2829 (1986)).
Substance,expression of β2-microglobulin [1],"Colonies or Clusters, CFU-GM [2]",morphology of cells isolated from residual colonies [3],"Colonies or Clusters, CFU-GM + CFU-L [4]",evidence of active leukemic disease process (BV173 cells; 1 mg/mouse x9 i.v. from day 7 or 21),"macroscopic examination: leukemic nodules in liver and kidneys (BV173 cells; from day +7, 26 days after last treatment (6 weeks))","splenomegaly and leukemic metastases in the liver (BV173 cells; from day +21, 12 days after last treatment (6 weeks))","macroscopic examination: metastases / leukemic nodules in liver, kidneys, splenomegaly (BV173 cells; from day +21, 26 days after treatment (8 weeks), FIG. 11)","bcr-abl transcripts in tissues ([5]; from day +7, 12 days after last treatment (4 weeks), blood, spleen, bone marrow, liver, lung, brain)","bcr-abl (b2/a2) transcripts in tissues ([5]; from day +7, 26 days after last treatment (6 weeks), blood leukocytes, spleen, bone marrow, liver, lung, brain)","bcr-abl transcripts in tissues ([5]; from day +21, 12 days after last treatment (6 weeks), blood, spleen, bone marrow, liver, lungs, brain)","bcr-abl transcripts in tissues ([5]; from day +21, 26 days after treatment (8 weeks))"
SEQ ID NO:3: synthetic 18-mer GAAGGGCTTC TTCCTTAT specific for the 18-nucleotide target sequence of the L-6 bcr-abl junction (antisense GAAGGGCTTCTTCCTTAT; chemistry not given here),clearly detectable,253 ± 35 colonies or clusters,largely consisted of differentiating elements,450 ± 42 colonies or clusters,–,–,–,–,–,–,–,–
"SEQ ID NO:34: phosphorothioate sense sequence ATCAATAAGGAAGCCCTTCAGCG (23-mer b2a2 sense) (sense ATCAATAAGGAAGCCCTTCAGCG; all phosphorothioate, sugars by position and methylation of C not given here)",–,–,–,–,"macroscopic, microscopic and molecular evidence of an active leukemic disease process","in addition to spleen enlargement, the presence of distinct leukemic nodules in liver and kidneys",splenomegaly and leukemic metastases in the liver were detected,"numerous metastases in the liver (FIG. 11A), a few in the kidneys, and splenomegaly; also recorded: Numerous distinct leukemic nodules are visible in the liver",bcr-abl transcripts in each of the tissues analyzed except brain,readily detected in each tissue,Bcr-abl transcripts were detected,readily detectable
